{"source": "patent US20250235496A1", "about": "“USE OF BELLIDIFOLIN (BEL) AND/OR BEL-CONTAINING EXTRACT IN PREPARATION OF ANTIDEPRESSANT PRODUCT” (priority 2024, published 2025)", "assay": "Mass spectrometry imaging of mouse brain", "assay_type": "in vivo, mice", "settings": "10, 20 and 40 mg/kg, 21 d"}
{"smiles": "COc1cc(O)c2c(=O)c3c(O)ccc(O)c3oc2c1", "note": "[BEL, bellidifolin]", "values": [{"measurement": "BEL signal in brain (mass spectrometry imaging), passage of BBB", "result": "BEL signals were detected"}]}
